Source: ChEMBL document CHEMBL6134895, “Strategic Design and Optimization of Umifenovir Analogues: Balancing Antiviral Efficacy and hERG Toxicity against SARS-CoV-2” (J Med Chem, 2025)
pIC50: −log10 of the molar value.

System: SARS-CoV-2
Assay: Antiviral activity against SARS CoV-2 assessed as inhibition of viral entry into HEK293T-hACE2 cells pretreated compound with HIV-1-based SARS CoV-2 pseudovirus harboring reporter NanoLuc luciferase gene for 1 hr followed by exposure to HEK293T-hACE2 cells measured after 48 hrs by Nano-Glo luciferase assay
Assay type: functional, organism-based
Details: Severe acute respiratory syndrome coronavirus 2

SMILES	pIC50
CCOC(=O)c1c(CSc2ccccc2)n(C)c2cc(Br)c(O)c(CN(C)C)c12	5.64
Cc1ccc(Cn2c(CSc3c(C)cc(C)cc3C)c(C(=O)NC3CCN(C(C)C)CC3)c3cc(O)c(Br)cc32)cc1	6.77
Cc1ccc(Cn2c(CSc3c(C)cc(C)cc3C)c(C(=O)N3CCC(N4CCOCC4)CC3)c3cc(O)c(Br)cc32)cc1	6.55
